target: Human immunodeficiency virus type 1 protease (Human immunodeficiency virus 1, UniProt Q72874); assay: Inhibitory activity against HIV-1 protease

Structure (SMILES)	Ki
Cc1ccc(C(=O)Nc2cccc(CN3C(=O)N(Cc4cccc(NC(=O)c5ccc(C)cn5)c4)[C@H](Cc4ccccc4)[C@H](O)[C@H]3CCc3ccccc3)c2)nc1	0.0794 nM
N/C(=N\O)c1cccc(CN2C(=O)N[C@H](CCc3ccccc3)[C@@H](O)[C@H]2Cc2ccccc2)c1	0.24 nM
Nc1cccc(CN2C(=O)N[C@H](CCc3ccccc3)[C@@H](O)[C@H]2Cc2ccccc2)c1	158 nM
Nc1cccc(CN2C(=O)N[C@H](Cc3ccccc3)[C@H](O)[C@H]2CCc2ccccc2)c1	6.17 nM
O=C(Nc1cccc(CN2C(=O)N(Cc3cccc(NC(=O)c4nccs4)c3)[C@H](Cc3ccccc3)[C@H](O)[C@H]2CCc2ccccc2)c1)c1nccs1	0.0302 nM
